The term Ki denotes the equilibrium dissociation constant of an inhibitor or competing ligand from its target. Usually inhibition stands for the relative decrease from the control value, in per cent. A lower inhibition goes with a response near the control.

Experiment [1] has as its target Human immunodeficiency virus type 1 protease (Human immunodeficiency virus 1, UniProt Q72874). Description: Binding affinity towards HIV protease was determined.
The test system of experiment [2] is H9. Description: Compound at 3 uM was tested for antiviral activity against HIV-1-infected H-9 cells. The following applies: Homo sapiens. Type of experiment: functional.
The test system of experiment [3] is H9. Description: Effective dose for antiviral activity against HIV-1-infected H-9 cells. Type of experiment: functional. The following applies: Homo sapiens, read-out: ED50 (the source's name).

Structures are written as SMILES. A value given as a limit tells only on which side of the number the result lay.

Consider `CCC(C1=C(O)OC2CCCC2C1=O)c1ccccc1` (stereo unspecified), for which the Ki in experiment [1] is over 2000 nM.
The compound `CCC(C1=C(O)OC2CCCCC2C1=O)c1cccc(NS(=O)(=O)c2ccc(C#N)cc2)c1` (stereo unspecified) had an inhibition at 3 µM in the experiment with H9 [2] of under 10%. In experiment [1], this compound gave a Ki of 15 nM.
For the compound `CCC(C1=C(O)C2CCCCC2OC1=O)c1cccc(NS(=O)(=O)c2ccc(C#N)cn2)c1` (stereo unspecified), the EC50 in the experiment on H9 [3] stood at 950 nM. In experiment [1], this compound yielded a Ki of 0.05 nM.
In the case of `CCC(c1ccccc1)c1c(O)c2c(oc1=O)CCCC2` (stereo unspecified), the Ki in experiment [1] was determined as 1100 nM.
Same read-out and setting: the result for `CCC(c1ccccc1)c1c(O)c2c(oc1=O)CCC2` (stereo unspecified) reads 700 nM; that for `CCC(c1ccccc1)c1c(O)c2ccccc2oc1=O` (stereo unspecified) [PHENPROCOUMON], 800 nM.
Consider `CC(C)(C)C(C1=C(O)OC2CCCCCCC2C1=O)c1cccc(NS(=O)(=O)c2ccc(C#N)cc2)c1` (stereo unspecified), for which the EC50 in the experiment on H9 [3] came out at 2500 nM. The compound also came in with a Ki in experiment [1] of 0.2 nM.
`CCC(C1=C(O)OC2CCCCCC2C1=O)c1ccccc1` (stereo unspecified): in experiment [1], the Ki was over 1200 nM.
In turn, `CCC(C1=C(O)OC2CCCCCCC2C1=O)c1ccccc1` (stereo unspecified) had a Ki in experiment [1] of 1200 nM.
On to `CCC(c1ccccc1)c1c(O)c2c(oc1=O)CCCCCCC2` (stereo unspecified), for which the Ki in experiment [1] was over 2000 nM.
As to `CCC(c1cccc(NS(=O)(=O)c2ccc(C#N)cn2)c1)c1c(O)c2c(oc1=O)CCC2` (stereo unspecified), the EC50 in the experiment on H9 [3] came to 8600 nM. In experiment [1], this compound displayed a Ki of 0.075 nM.
As to `CCC(C1=C(O)OC2CCCCC2C1=O)c1ccccc1` (stereo unspecified), the Ki in experiment [1] was 670 nM.

Source of the values: ChEMBL document CHEMBL1129800, “Cycloalkylpyranones and cycloalkyldihydropyrones as HIV protease inhibitors: exploring the impact of ring size on structure-activity relationships” (J Med Chem, 1996).
